The values below come from ChEMBL document CHEMBL2203016, “Purpuroines A-J, halogenated alkaloids from the sponge Iotrochota purpurea with antibiotic activity and regulation of tyrosine kinases” (Bioorg Med Chem, 2012).

In brackets after ≈: the same amount, converted by molar mass. Activity calls are given as the source filed them. No cut-off for these calls is given here.

One assay relates to Fusarium oxysporum. Nature of the assay: Antimicrobial activity against Fusarium oxysporum by microplate reader analysis. The class given is functional, organism-based.
The next assay has as its system Saccharomyces cerevisiae. Nature of the assay: Antimicrobial activity against Saccharomyces cerevisiae by microplate reader analysis. The class given is functional, organism-based.
The test system of the next assay is Staphylococcus aureus. The assay can be described thus: Antimicrobial activity against Staphylococcus aureus by microplate reader analysis. The class given is functional, organism-based.
The next assay concerns Pseudomonas aeruginosa. Nature of the assay: Antimicrobial activity against Pseudomonas aeruginosa by microplate reader analysis. The class given is functional, organism-based.
For assay [1], the system named is Candida albicans. The assay can be described thus: Antimicrobial activity against Candida albicans at 20 ug/ml by microplate reader analysis. The class given is functional, organism-based.
The subject of assay [2] is Streptococcus pneumoniae. The assay can be described thus: Antimicrobial activity against Streptococcus pneumoniae at 20 ug/ml by microplate reader analysis. The class given is functional, organism-based.
The subject of assay [3] is Aspergillus fumigatus. Nature of the assay: Antimicrobial activity against Aspergillus fumigatus at 20 ug/ml by microplate reader analysis. The class given is functional, organism-based.
A further assay has as its system Aspergillus flavus. The assay can be described thus: Antimicrobial activity against Aspergillus flavus by microplate reader analysis. The class given is functional, organism-based.
In the next assay the test system is Escherichia coli. Nature of the assay: Antimicrobial activity against Escherichia coli by microplate reader analysis. The class given is functional, organism-based.
For assay [4], the system named is Aspergillus fumigatus. The assay can be described thus: Antimicrobial activity against Aspergillus fumigatus by microplate reader analysis. The class given is functional, organism-based.
In assay [5] the test system is Candida albicans. The assay can be described thus: Antimicrobial activity against Candida albicans by microplate reader analysis. The class given is functional, organism-based.
The test system of assay [6] is Streptococcus pneumoniae. The assay can be described thus: Antimicrobial activity against Streptococcus pneumoniae by microplate reader analysis. The class given is functional, organism-based.
The target of assay [7] is Serine/threonine-protein kinase PLK1 (Homo sapiens, UniProt P53350). The assay can be described thus: Inhibition of PLK1.
Sequence of Serine/threonine-protein kinase PLK1 (P53350 whole entry): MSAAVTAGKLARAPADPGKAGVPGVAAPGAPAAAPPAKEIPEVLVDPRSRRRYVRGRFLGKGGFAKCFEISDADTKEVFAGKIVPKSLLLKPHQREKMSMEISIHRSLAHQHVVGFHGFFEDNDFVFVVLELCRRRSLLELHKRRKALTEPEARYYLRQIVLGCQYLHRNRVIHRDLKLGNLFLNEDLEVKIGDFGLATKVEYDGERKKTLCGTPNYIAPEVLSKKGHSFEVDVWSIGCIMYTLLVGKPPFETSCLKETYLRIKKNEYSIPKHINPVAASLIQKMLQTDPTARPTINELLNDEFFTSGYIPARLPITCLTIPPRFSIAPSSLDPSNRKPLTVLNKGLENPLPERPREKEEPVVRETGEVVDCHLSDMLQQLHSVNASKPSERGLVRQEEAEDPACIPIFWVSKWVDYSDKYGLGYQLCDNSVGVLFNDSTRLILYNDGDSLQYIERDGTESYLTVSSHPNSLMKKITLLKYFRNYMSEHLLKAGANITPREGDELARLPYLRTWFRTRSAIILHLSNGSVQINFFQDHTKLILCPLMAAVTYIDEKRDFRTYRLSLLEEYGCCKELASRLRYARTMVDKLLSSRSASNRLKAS
Assay [8] deals with Cyclin-dependent kinase 2 (Homo sapiens, UniProt P24941). The assay can be described thus: Inhibition of CDK2.
For assay [9], the target named is Tyrosine-protein kinase Lck (Homo sapiens, UniProt P06239). Nature of the assay: Inhibition of LCK.
Sequence of Tyrosine-protein kinase Lck (P06239 whole entry): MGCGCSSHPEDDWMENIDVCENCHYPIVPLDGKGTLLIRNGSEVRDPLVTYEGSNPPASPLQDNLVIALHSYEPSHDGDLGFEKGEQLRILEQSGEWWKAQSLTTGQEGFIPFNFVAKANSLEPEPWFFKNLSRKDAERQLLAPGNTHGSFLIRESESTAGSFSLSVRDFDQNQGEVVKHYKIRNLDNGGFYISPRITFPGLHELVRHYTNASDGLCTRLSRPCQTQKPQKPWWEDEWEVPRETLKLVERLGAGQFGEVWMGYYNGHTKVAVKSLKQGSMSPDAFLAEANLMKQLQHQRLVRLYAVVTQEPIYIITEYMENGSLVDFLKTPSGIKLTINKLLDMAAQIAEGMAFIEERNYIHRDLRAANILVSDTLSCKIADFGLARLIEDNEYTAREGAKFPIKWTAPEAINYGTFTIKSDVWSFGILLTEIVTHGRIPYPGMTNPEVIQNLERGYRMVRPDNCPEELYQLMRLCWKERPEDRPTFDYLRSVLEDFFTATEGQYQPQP
Where [10] appears, read: Aspergillus fumigatus, read-out: IC50.
Setting [11] is: Candida albicans, read-out: IC50.
The mark [12] stands for this setting: Streptococcus pneumoniae, read-out: IC50.

Turning to `C[N+](C)(C)[C@H](CCOc1c(Cl)cc(Br)cc1Br)C(=O)[O-]`, the outcome with Fusarium oxysporum, in the assay with Saccharomyces cerevisiae, with Staphylococcus aureus, in the assay with Pseudomonas aeruginosa, in the assay on Aspergillus flavus and with Escherichia coli was Active. Moreover, the result with Candida albicans [1], with Streptococcus pneumoniae [2] and in the assay on Aspergillus fumigatus [3] was inactive.

As for `COC(=O)[C@@H](Cc1c[nH]c2cc(Br)ccc12)[N+](C)(C)C` (racemic), the result in the assay on Fusarium oxysporum, in the assay on Saccharomyces cerevisiae, in the assay with Staphylococcus aureus, with Pseudomonas aeruginosa, in the assay with Aspergillus flavus and with Escherichia coli was Active. In addition, the result in the assay with Candida albicans [1], in the assay on Streptococcus pneumoniae [2] and with Aspergillus fumigatus [3] was inactive.

For `C[C@@H]1[C@H](O)[C@@H](C)/C=C/C=C/C=C/C=C/C=C/C=C/C=C/[C@H](O[C@@H]2O[C@H](C)[C@@H](O)[C@H](N)[C@@H]2O)C[C@@H]2O[C@](O)(C[C@@H](O)C[C@@H](O)[C@H](O)CC[C@@H](O)C[C@@H](O)CC(=O)O[C@H]1C)C[C@H](O)[C@H]2C(=O)O` [AMPHOTERICIN B], the concentration for half-maximal inhibition (IC50) (as a rule, the concentration that inhibits the measured activity by half) with Aspergillus fumigatus [4] (setting [10]) worked out at 3.27 µg/mL (≈ 3.54 µM); in the assay with Candida albicans [5] (setting [11]), 4.26 µg/mL (≈ 4.61 µM).

With `CC1(C)S[C@@H]2[C@H](NC(=O)[C@H](N)c3ccccc3)C(=O)N2[C@H]1C(=O)O` [AMPICILLIN], the half-inhibitory concentration (IC50) in the assay with Streptococcus pneumoniae [6] (setting [12]) turned out to be 0.38 µg/mL (≈ 1.09 µM).

As to `C[N+](C)(C)[C@H](CCOc1c(Br)cc(Br)cc1Br)C(=O)[O-]` [PURPUROINE A], the IC50 was more than 105 µM in [7]; “Not Active” with Streptococcus pneumoniae [6]; 28.6 µg/mL (≈ 60.3 µM) in the assay on Aspergillus fumigatus [4] (setting [10]); more than 105 µM in assay [8]; 4.96 µM in assay [9]; “Not Active” in the assay with Candida albicans [5].

As to `C[N+](C)(C)[C@H](CCOc1ccc(Br)cc1Br)C(=O)[O-]` [PURPUROINE B], the outcome with Fusarium oxysporum, in the assay on Saccharomyces cerevisiae, with Staphylococcus aureus, in the assay on Pseudomonas aeruginosa, with Aspergillus flavus and with Escherichia coli was Active. In addition, the outcome in the assay with Candida albicans [1], in the assay with Streptococcus pneumoniae [2] and in the assay with Aspergillus fumigatus [3] was inactive. Further, the concentration for half-maximal inhibition (IC50) in [7] was more than 127 µM; in [8] it was more than 127 µM; in [9], 32.3 µM.

`C[N+](C)(C)[C@H](CCOc1c(Cl)cc(Br)cc1Cl)C(=O)[O-]` [PURPUROINE C]: the concentration for half-maximal inhibition (IC50) is 17.8 µM in assay [7]; “Not Active” with Streptococcus pneumoniae [6]; 26.1 µg/mL (≈ 67.7 µM) with Aspergillus fumigatus [4] (setting [10]); more than 130 µM in assay [8]; 11.7 µM in assay [9]; “Not Active” with Candida albicans [5].

As for `C[N+](C)(C)[C@H](CCOc1c(Br)cc(Br)cc1I)C(=O)[O-]` [PURPUROINE D], the IC50 is 2.78 µM in assay [7]; “Not Active” in the assay with Streptococcus pneumoniae [6]; 25.6 µg/mL (≈ 49.1 µM) with Aspergillus fumigatus [4] (setting [10]); more than 96 µM in assay [8]; 1.8 µM in assay [9]; 19 µg/mL (≈ 36.5 µM) in the assay with Candida albicans [5] (setting [11]).

In the case of `COc1c(I)cc(C[C@H](C(=O)[O-])[N+](C)(C)C)cc1I` [PURPUROINE F], the result in the assay on Fusarium oxysporum, in the assay with Saccharomyces cerevisiae, in the assay with Staphylococcus aureus, in the assay on Pseudomonas aeruginosa, in the assay with Aspergillus flavus and in the assay on Escherichia coli was Active. The outcome with Candida albicans [1], in the assay on Streptococcus pneumoniae [2] and in the assay with Aspergillus fumigatus [3] was inactive. Besides, the IC50 is 9.24 µM in assay [7], more than 102 µM in assay [8] and 14.7 µM in assay [9].

As for `C[N+](C)(C)[C@H](Cc1cc(I)c(O)c(I)c1)C(=O)[O-]` [PURPUROINE G], the result with Fusarium oxysporum, with Saccharomyces cerevisiae, in the assay on Staphylococcus aureus, in the assay on Pseudomonas aeruginosa, in the assay on Aspergillus flavus and in the assay with Escherichia coli was Active. Further, the outcome in the assay on Candida albicans [1], in the assay on Streptococcus pneumoniae [2] and in the assay with Aspergillus fumigatus [3] was inactive. Besides, the results for the half-inhibitory concentration (IC50) in [7], in [8] and in [9] were 21.2 µM, more than 105 µM and 25 µM, respectively.

Regarding `COc1c(Br)cc(C[C@H](C(=O)[O-])[N+](C)(C)C)cc1I` [PURPUROINE H], the concentration for half-maximal inhibition (IC50) in assay [7] was 17.1 µM; in assay [8], more than 113 µM; in [9] it was 17.9 µM.

Take `C[N+](C)(C)[C@H](Cc1cc(Br)c(O)c(I)c1)C(=O)[O-]` [PURPUROINE I]: the result in the assay with Candida albicans [1], with Streptococcus pneumoniae [2] and with Aspergillus fumigatus [3] was inactive. Also, the IC50 in assay [7] was more than 117 µM; in the assay on Streptococcus pneumoniae [6] (setting [12]), 18.1 µg/mL (≈ 42.2 µM); in the assay with Aspergillus fumigatus [4], “Not Active”; in assay [8], more than 117 µM; in [9] it was more than 117 µM; with Candida albicans [5], “Not Active”.
